The experiment has as its system human lung adenocarcinoma epithelial cell line A549. Briefly: Growth inhibition in vitro of human tumor cell line A549 (MTT assay). The following applies: for IC50: Homo sapiens, A549 cells, MTT assay, 24 hours incubation, read-out: IC 50, tumor cell growth inhibition in human tumor cell line A549. The experiment is classed as cell-based. On the procedure: Growth Inhibition In Vitro of Human Tumor Cell Line A549 by Examples:
Human lung adenocarcinoma epithelial cell line A549 was obtained from American Type Culture Collection (ATCC) and maintained in Dulbecco modified eagle medium supplemented with 10% fetal bovine serum. MTT assay was performed using the MTT cell proliferation assay kit (ATCC). Briefly, 3×10^3 A549 cells/well were plated in 96 well plates overnight and then incubated with different concentrations of tested compounds or vehicle controls for 24 hours. Ten μl of MTT reagent was added to each well for 120 min. The formazan crystal was dissolved with MTT detergent, and the OD value was measured at 570 nm using a SpectraMax M3 microplate reader (Molecular Devices). Data were normalized to vehicle controls and processed using GraphPad Prism 5.00.
For orientation: Formazan colour is commonly taken as a measure of viable cells.

Molecules are shown by their SMILES. A value given as a limit tells only on which side of the number the result lay.

On to `C#Cc1cccc(Nc2ncnc3cc(OCCOC)c(OCCOC)cc23)c1` [Erlotinib, reference compound], for which the IC50 was 9.9 µM.

Take `C#Cc1cccc(Nc2ncnc3cc(OCCOCCOCCOCCOc4cc5ncnc(Nc6cccc(C#C)c6)c5cc4OCCOC)c(OCCOC)cc23)c1` [dimer 1, 7,7′-((((oxybis(ethane-2,1-diyl))bis(oxy))bis(ethane-2,1-diyl))bis(oxy))bis(N-(3-ethynylphenyl)-6-(2-methoxyethoxy)quinazolin-4-amine)]: the IC50 is over 80 µM.

In the case of `C#Cc1cccc(Nc2ncnc3cc(OCCOC)c(OCCOCCOCCOCCOc4cc5c(Nc6cccc(C#C)c6)ncnc5cc4OCCOC)cc23)c1` [dimer 2, 6,6′-((((oxybis(ethane-2,1-diyl))bis(oxy))bis(ethane-2,1-diyl))bis(oxy))bis(N-(3-ethynylphenyl)-7-(2-methoxyethoxy)quinazolin-4-amine)], the IC50 was 5.1 µM. Further, the “in vitro activity compared to Erlotinib in cell line A549” value (human lung adenocarcinoma epithelial cell line A549, comparison in words) is given as “higher activity than Erlotinib”.

Turning to `C#Cc1cccc(Nc2ncnc3cc(OCCOCCOCCOCCOc4cc5c(Nc6cccc(C#C)c6)ncnc5cc4OCCOC)c(OCCOC)cc23)c1` [dimer 3, N-(3-ethynylphenyl)-6-(2-(2-(2-(2-((4-((3-ethynylphenyl)amino)-6-(2-methoxyethoxy)quinazolin-7-yl)oxy)ethoxy)ethoxy)ethoxy)ethoxy)-7-(2-methoxyethoxy)quinazolin-4-amine], the IC50 was over 80 µM.

Source of the values: patent US8916572B2, “Bis-quinazoline derivatives as inhibitors for epidermal growth factor receptor (EGFR) tyrosine kinase” (Tetranov International, Inc., priority 2012, dated 2014).
